US9249147B2, “Tyrosine kinase inhibitors” (CHEMBRIDGE CORPORATION, priority 2008, dated 2016)

Tests used:
[1] = target: ALK (Homo sapiens, UniProt Q9UM73); assay: ALK kinase assay (Kinase-Glo / AlphaScreen, purified NPM-ALK); type: biochemical; design: fused to the complete intracytoplasmic portion of ALK containing the functional tyrosine kinase domain; 6xHis; made in house; host or cells: insect cells; the other entry of the earlier key: NPM1 (P06748, Nucleophosmin); conditions: Table 1; read-out: ALK IC50
[2] = target: T1, IGF1R (Homo sapiens, UniProt P08069); assay: IGF1R kinase assay; type: biochemical; conditions: Table 1; read-out: IGF1R IC50
T1 construct: 6×His- or GST-tagged kinase domain fragments of the corresponding RTKs expressed in baculovirus system; host or cells: baculovirus system
Experimental: To determine inhibition of several tyrosine kinases, such as IGF1R, InsR, Alk, TrkA and Jak2, kinase assays are conducted using either Kinase-Glo (Promega) or AlphaScreen (PerkinElmer) kinase assay platforms. The Kinase-Glo Luminescent Kinase Assay is a homogeneous method for measuring kinase activity by determining the amount of ATP remaining after a kinase reaction. The luminescent signal is proportional to the amount of ATP and inversely proportional to the amount of kinase activity. Tyrosine kinase PT66 AlphaScreen Assay is a high-sensitivity homogeneous, anti-phosphotyrosine antibody-mediated luminescent proximity method measuring incorporation of phosphate in synthetic poly(Glu-Tyr) substrate. The kinase preparations used consist of purified recombinant, 6×His- or GST-tagged kinase domain fragments of the corresponding RTKs expressed in baculovirus system.
Compounds with a range of concentrations 40 μM, 20 μM, 10 μM, 5 μM, 2.5 μM, 1.25 μM, 0.625 μM, 0.3125 μM, 0.15625 μM and 0.078125 μM were incubated with NPM-ALK, which was produced in insect cells as a 6×HIS-tagged fusion protein and purified using nickel-charged resin chromatography, for 30 minutes at RT in the presence of 10 μM ATP and 7.0 ng biotinylated poly-GT. A 1:1 mixture of […] and donor beads was then added to the reaction and incubated for an additional 60 minutes at RT. The assay was conducted on a MultiPROBE liquid handling workstation (PerkinElmer) in a 384-well plate format with a total reaction volume of 40 μL per well. Working stocks of all compounds were dissolved in 100% DMSO and serial dilutions of the compounds were performed using kinase buffer (50 mM Tris-HCl (pH 7.5), 5 mM MgCl2, 5 mM MnCl2, 2 mM DTT (added freshly before use), 0.01% Tween-20) containing 5% DMSO. […] Data were collected as optical readings at 520-680 nm on a Fusion™ microplate analyzer (PerkinElmer), and IC50 and Ki values calculated using PRISM3.0 software (GraphPad Software, Inc., San Diego, Calif.). The same assay was also used with minor modifications to assess the IC50 and Ki values for selected compounds against five other tyrosine kinases (IRK, IGF1R, Flt3, Abl, Src), all of which were purchased from commercial vendors. PolyGT-Biotin was bought from CIS Biointernational Cat. #61GT0BLD; ATP—from Sigma Cat. # A7699; sodium orthovanadate—from Sigma Cat. #S-6508; phosphotyrosine (PT66) assay kit from PerkinElmer Cat. #6760602M; automated workstation tips (20 μL): PerkinElmer Cat. #6000657; and OptiPlate-384 (white)—from PerkinElmer Cat. #6007299.

T1 sequence (P08069 999-1274 limits assumed): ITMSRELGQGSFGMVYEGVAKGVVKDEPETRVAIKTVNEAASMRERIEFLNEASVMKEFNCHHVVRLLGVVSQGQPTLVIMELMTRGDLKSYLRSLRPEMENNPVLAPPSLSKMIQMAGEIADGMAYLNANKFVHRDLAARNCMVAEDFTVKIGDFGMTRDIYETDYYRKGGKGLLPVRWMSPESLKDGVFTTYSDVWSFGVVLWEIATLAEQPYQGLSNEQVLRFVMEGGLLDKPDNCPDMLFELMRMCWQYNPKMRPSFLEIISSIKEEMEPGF
Sequence of ALK (Q9UM73 with tags, fused parts or gaps): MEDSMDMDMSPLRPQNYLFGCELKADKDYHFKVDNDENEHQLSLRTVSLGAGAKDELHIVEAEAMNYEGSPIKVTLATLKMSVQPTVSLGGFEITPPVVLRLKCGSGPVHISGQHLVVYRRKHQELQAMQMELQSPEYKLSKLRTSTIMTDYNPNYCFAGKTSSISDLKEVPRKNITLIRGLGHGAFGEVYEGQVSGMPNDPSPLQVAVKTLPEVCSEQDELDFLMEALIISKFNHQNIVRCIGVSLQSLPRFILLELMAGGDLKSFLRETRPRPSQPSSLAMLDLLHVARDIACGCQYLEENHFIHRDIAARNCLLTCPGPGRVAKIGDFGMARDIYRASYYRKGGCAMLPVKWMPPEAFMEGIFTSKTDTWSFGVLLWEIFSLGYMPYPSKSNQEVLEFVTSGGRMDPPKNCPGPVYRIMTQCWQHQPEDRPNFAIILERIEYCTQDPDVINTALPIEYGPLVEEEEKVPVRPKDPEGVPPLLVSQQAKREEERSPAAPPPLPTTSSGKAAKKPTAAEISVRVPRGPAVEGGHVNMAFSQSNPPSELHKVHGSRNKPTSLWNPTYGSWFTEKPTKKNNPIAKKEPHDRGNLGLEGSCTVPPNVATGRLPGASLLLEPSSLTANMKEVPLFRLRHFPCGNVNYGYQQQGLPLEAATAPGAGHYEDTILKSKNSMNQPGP

| Structure (SMILES) | IC50 [1] [µM] | IC50 [2] [µM] |
| --- | --- | --- |
| CN1CCC(N2C(=O)c3cc4nc(-c5c(N[C@H](CO)Cc6ccccc6)cc[nH]c5=O)[nH]c4cc3C2=O)CC1 | > 1 |  |
| COC[C@H](Cc1ccccc1)Nc1cc[nH]c(=O)c1-c1nc2cc3c(cc2[nH]1)C(=O)N(C1CCN(C)CC1)C3=O | > 1 |  |
| COC[C@@H](Cc1ccccc1)Nc1cc[nH]c(=O)c1-c1nc2cc3c(cc2[nH]1)C(=O)N(C1CCN(C)CC1)C3=O | > 1 |  |
| CC(Cc1cccs1)Nc1cc[nH]c(=O)c1-c1nc2cc3c(cc2[nH]1)CN(CCCN1CCCC1)C3=O (stereo not shown) | 0.1 to 0.25 | 0.25 to 1 |
| CC(Cc1ccsc1)Nc1cc[nH]c(=O)c1-c1nc2cc3c(cc2[nH]1)C(=O)N(CCCN1CCCC1)C3=O (stereo not shown) | 0.1 to 0.25 |  |
| CC(Cc1ccsc1)Nc1cc[nH]c(=O)c1-c1nc2cc3c(cc2[nH]1)C(=O)N(CCCN1CCCC1)C3 (stereo not shown) | 0.25 to 1 | 0.25 to 1 |
| CCC(Cc1cccs1)Nc1cc[nH]c(=O)c1-c1nc2cc3c(cc2[nH]1)C(=O)N(CCCN1CCCC1)C3=O (stereo not shown) | 0.25 to 1 |  |
| CCC(Cc1cccs1)Nc1cc[nH]c(=O)c1-c1nc2cc3c(cc2[nH]1)C(=O)N(CCCN1CCCC1)C3 (stereo not shown) | > 1 |  |
| Cc1noc(C)c1CC(C)Nc1cc[nH]c(=O)c1-c1nc2cc3c(cc2[nH]1)C(=O)N(CCCN1CCCC1)C3=O (stereo not shown) | > 1 | > 1 |
| Cc1noc(C)c1CC(C)Nc1cc[nH]c(=O)c1-c1nc2cc3c(cc2[nH]1)C(=O)N(CCCN1CCCC1)C3 (stereo not shown) | > 1 | > 1 |
| C[C@@H](Cc1cccs1)Nc1cc[nH]c(=O)c1-c1nc2cc3c(cc2[nH]1)C(=O)N(C1CCN(C)CC1)C3 | 0.1 to 0.25 | 0.01 to 0.1 |
| C[C@H](Cc1cccs1)Nc1cc[nH]c(=O)c1-c1nc2c(Cl)c3c(cc2[nH]1)C(=O)N(C1CCN(C)CC1)C3 | > 1 | 0.25 to 1 |
| C[C@H](Cc1cccs1)Nc1cc[nH]c(=O)c1-c1nc2cc3c(c(Cl)c2[nH]1)C(=O)N(C1CCN(C)CC1)C3 | 0.25 to 1 | 0.1 to 0.25 |
| Cc1ccc(CC(C)Nc2cc[nH]c(=O)c2-c2nc3cc4c(cc3[nH]2)C(=O)N(CCCN2CCCC2)C4)s1 (stereo not shown) | > 1 | 0.1 to 0.25 |
| Cc1ccsc1CC(C)Nc1cc[nH]c(=O)c1-c1nc2cc3c(cc2[nH]1)C(=O)N(CCCN1CCCC1)C3 (stereo not shown) | 0.1 to 0.25 | 0.1 to 0.25 |
| Cc1csc(CC(C)Nc2cc[nH]c(=O)c2-c2nc3cc4c(cc3[nH]2)C(=O)N(CCCN2CCCC2)C4)c1 (stereo not shown) | 0.25 to 1 | 0.25 to 1 |
| Cc1cc(CC(C)Nc2cc[nH]c(=O)c2-c2nc3cc4c(cc3[nH]2)C(=O)N(CCCN2CCCC2)C4)sc1C (stereo not shown) | > 1 | 0.25 to 1 |
| Cc1cc(C)c(CC(C)Nc2cc[nH]c(=O)c2-c2nc3cc4c(cc3[nH]2)C(=O)N(CCCN2CCCC2)C4)s1 (stereo not shown) | > 1 | 0.1 to 0.25 |
| CC(Cc1cc2ccccc2s1)Nc1cc[nH]c(=O)c1-c1nc2cc3c(cc2[nH]1)C(=O)N(CCCN1CCCC1)C3 (stereo not shown) | > 1 | > 1 |
| CCc1ccc(CC(C)Nc2cc[nH]c(=O)c2-c2nc3cc4c(cc3[nH]2)C(=O)N(CCCN2CCCC2)C4)s1 (stereo not shown) | > 1 | > 1 |
| COc1ccc(-c2ccc(CC(C)Nc3cc[nH]c(=O)c3-c3nc4cc5c(cc4[nH]3)C(=O)N(CCCN3CCCC3)C5)s2)cc1 (stereo not shown) | > 1 | > 1 |
| CC(Cc1ccc(-c2ccccc2)s1)Nc1cc[nH]c(=O)c1-c1nc2cc3c(cc2[nH]1)C(=O)N(CCCN1CCCC1)C3 (stereo not shown) | > 1 | > 1 |
| CC(Cc1ccc(Cl)s1)Nc1cc[nH]c(=O)c1-c1nc2cc3c(cc2[nH]1)C(=O)N(CCCN1CCCC1)C3 (stereo not shown) | 0.25 to 1 | 0.25 to 1 |
| COc1ccsc1C[C@H](C)Nc1cc[nH]c(=O)c1-c1nc2cc3c(cc2[nH]1)CN(CCCN1CCCC1)C3=O | 0.25 to 1 | 0.25 to 1 |
| C[C@H](Nc1cc[nH]c(=O)c1-c1nc2cc3c(cc2[nH]1)C(=O)N(CCCN1CCCC1)C3=O)[C@H](O)c1ccccc1 | 0.1 to 0.25 | 0.25 to 1 |

| Structure (SMILES) | IC50 [1] [µM] | IC50 [2] [µM] |
| --- | --- | --- |
| C[C@@H](Cc1cccs1)Nc1cc[nH]c(=O)c1-c1nc2cc3c(cc2[nH]1)C(=O)N(CCN1CCCC1)C3=O | 0.1 to 0.25 | 0.25 to 1 |
| C[C@@H](Cc1sccc1Cl)Nc1cc[nH]c(=O)c1-c1nc2cc3c(cc2[nH]1)C(=O)N(CCN1CCCC1)C3=O | 0.1 to 0.25 | 0.25 to 1 |
| Cc1ccsc1C[C@H](C)Nc1cc[nH]c(=O)c1-c1nc2cc3c(cc2[nH]1)CN(CCN1CCS(=O)(=O)CC1)C3=O | 0.1 to 0.25 | 0.25 to 1 |
| Cc1ccsc1C[C@H](C)Nc1cc[nH]c(=O)c1-c1nc2cc3c(cc2[nH]1)C(=O)N(CCN(C)CCS(C)(=O)=O)C3=O | 0.1 to 0.25 | > 1 |
| Cc1ccsc1C[C@H](C)Nc1cc[nH]c(=O)c1-c1nc2cc3c(cc2[nH]1)C(=O)N(CCN(C)CCS(C)(=O)=O)C3 | 0.01 to 0.1 | 0.25 to 1 |
| Cc1ccccc1C[C@H](C)Nc1cc[nH]c(=O)c1-c1nc2cc3c(cc2[nH]1)C(=O)N(CCN1CCCC1)C3=O | 0.01 to 0.1 | > 1 |
| Cc1ccccc1C[C@H](C)Nc1cc[nH]c(=O)c1-c1nc2cc3c(cc2[nH]1)CN(CCN1CCCC1)C3=O | 0.01 to 0.1 | 0.25 to 1 |
| C[C@@H](Cc1ccco1)Nc1cc[nH]c(=O)c1-c1nc2cc3c(cc2[nH]1)C(=O)N(CCN1CCCC1)C3=O | 0.1 to 0.25 | > 1 |
| C[C@@H](Cc1ccco1)Nc1cc[nH]c(=O)c1-c1nc2cc3c(cc2[nH]1)CN(CCN1CCCC1)C3=O | 0.1 to 0.25 | 0.25 to 1 |
| CCN1CCC[C@@H]1CN1Cc2cc3nc(-c4c(N[C@@H](C)Cc5sccc5C)cc[nH]c4=O)[nH]c3cc2C1=O | 0.1 to 0.25 | 0.25 to 1 |
| CCN1CCC[C@H]1CN1Cc2cc3nc(-c4c(N[C@@H](C)Cc5sccc5C)cc[nH]c4=O)[nH]c3cc2C1=O | 0.01 to 0.1 | 0.1 to 0.25 |
| C[C@@H](Cc1sccc1Cl)Nc1cc[nH]c(=O)c1-c1nc2cc3c(cc2[nH]1)C(=O)N([C@@H](C)CN(C)C)C3=O | 0.01 to 0.1 | > 1 |
| C[C@H](CN(C)C)N1C(=O)c2cc3nc(-c4c(N[C@@H](C)Cc5sccc5Cl)cc[nH]c4=O)[nH]c3cc2C1=O | 0.01 to 0.1 | > 1 |
| C[C@@H](Cc1sccc1Cl)Nc1cc[nH]c(=O)c1-c1nc2cc3c(cc2[nH]1)C(=O)N(C[C@H](C)N(C)C)C3=O | 0.01 to 0.1 | > 1 |
| C[C@@H](Cc1sccc1Cl)Nc1cc[nH]c(=O)c1-c1nc2cc3c(cc2[nH]1)C(=O)N([C@@H](C)CN(C)C)C3 | 0.01 to 0.1 | 0.1 to 0.25 |
| C[C@H](CN1C(=O)c2cc3nc(-c4c(N[C@@H](C)Cc5sccc5Cl)cc[nH]c4=O)[nH]c3cc2C1=O)N(C)C | 0.01 to 0.1 | > 1 |
| C[C@H](CN(C)C)N1Cc2cc3nc(-c4c(N[C@@H](C)Cc5sccc5Cl)cc[nH]c4=O)[nH]c3cc2C1=O | 0.01 to 0.1 | 0.1 to 0.25 |
| C[C@@H](Cc1sccc1Cl)Nc1cc[nH]c(=O)c1-c1nc2cc3c(cc2[nH]1)C(=O)N(C[C@H](C)N(C)C)C3 | < 0.01 | 0.25 to 1 |
| C[C@H](CN1Cc2cc3nc(-c4c(N[C@@H](C)Cc5sccc5Cl)cc[nH]c4=O)[nH]c3cc2C1=O)N(C)C | < 0.01 | 0.25 to 1 |
| C[C@@H](Cc1ccccc1F)Nc1cc[nH]c(=O)c1-c1nc2cc3c(cc2[nH]1)CN(CCN1CCCC1)C3=O | 0.1 to 0.25 | 0.25 to 1 |
| Cc1c(C[C@H](C)Nc2cc[nH]c(=O)c2-c2nc3cc4c(cc3[nH]2)CN(CCN2CCCC2)C4=O)ccc(F)c1F | > 1 | > 1 |
| Cc1c(C[C@H](C)Nc2cc[nH]c(=O)c2-c2nc3cc4c(cc3[nH]2)CN(CCN(C)C)C4=O)ccc(F)c1F | > 1 | > 1 |
| C[C@@H](Cc1cc(F)cc(F)c1F)Nc1cc[nH]c(=O)c1-c1nc2cc3c(cc2[nH]1)CN(CCN1CCCC1)C3 | 0.25 to 1 | 0.25 to 1 |
| Cc1c(F)cc(F)cc1C[C@H](C)Nc1cc[nH]c(=O)c1-c1nc2cc3c(cc2[nH]1)CN(CCN1CCCC1)C3=O | > 1 | 0.25 to 1 |
| Cc1c(F)cc(F)cc1C[C@H](C)Nc1cc[nH]c(=O)c1-c1nc2cc3c(cc2[nH]1)CN(CCN(C)C)C3=O | 0.1 to 0.25 | 0.25 to 1 |
